Data from patent US9511091B2, “Rare earth metal compounds, methods of making, and methods of using the same” (Spectrum Pharmaceuticals, Inc., priority 2002, dated 2016).

Assays:
[1] = reactivity with respect to phosphate: phosphate removal from pH 3 Na2HPO4/HCl stock solution; assay type: binding; settings: for rate of removal of phosphate compared with commercial lanthanum carbonate hydrate La2(CO3)3.H2O and La2(CO3)3.4H2O: FIGS. 17, 20, 23, pH 3; for capacity of phosphate removal (PO4 removed/g of La compound) / phosphate in solution removed: after 10 min, pH 3, La 3 times the stoichiometric amount
Experimental: A desirable lanthanum carbonate hydroxide is LaCO3OH. […] To determine the reactivity of the lanthanum carbonate hydroxide compound with respect to phosphate, the following procedure was used. A stock solution containing 13.75 g/l of anhydrous Na2HPO4 and 8.5 g/l of HCl is prepared. The stock solution is adjusted to pH 3 by the addition of concentrated HCl. 100 ml of the stock solution is placed in a beaker with a stirring bar. A sample of lanthanum carbonate hydroxide powder is added to the solution. The amount of lanthanum carbonate hydroxide powder is such that the amount of La in suspension is 3 times the stoichiometric amount needed to react completely with the phosphate. Samples of the suspension are taken at intervals, through a filter that separated all solids from the liquid. The liquid sample is analyzed for phosphorous.
(§1) To determine the reactivity of the lanthanum compound with respect to phosphate, the following test was conducted. A stock solution containing 13.75 g/l of anhydrous Na2HPO4 and 8.5 g/l of HCl was prepared. The stock solution was adjusted to pH 3 by the addition of concentrated HCl. An amount of 100 ml of the stock solution was placed in a beaker with a stirring bar. The lanthanum oxychloride from above was added to the solution to form a suspension. The amount of lanthanum oxychloride was such that the amount of La in suspension was 3 times the stoichiometric amount needed to react completely with the phosphate. Samples of the suspension were taken at time intervals, through a filter that separated all solids from the liquid. The liquid sample was analyzed for phosphorous.
as §1, with “Lanthanum carbonate hydroxide powder made as described” for “The lanthanum oxychloride from”, “solution.” for “solution to form a suspension.”, “carbonate hydroxide powder” for “oxychloride”, “intervals” for “intervals,”
(§2) To determine the reactivity of this lanthanum compound with respect to phosphate, the following test was conducted. A stock solution containing 13.75 g/l of anhydrous Na2HPO4 and 8.5 g/l of HCl was prepared. The stock solution was adjusted to pH 3 by the addition of concentrated HCl. An amount of 100 ml of the stock solution was placed in a beaker with a stirring bar. Anhydrous lanthanum oxycarbonate made as described above, was added to the solution. The amount of anhydrous lanthanum oxycarbonate was such that the amount of La in suspension was 3 times the stoichiometric amount needed to react completely with the phosphate. Samples of the suspension were taken at intervals, through a filter that separated all solids from the liquid. The liquid sample was analyzed for phosphorous.
as §2, with “reactivity of the lanthanum compound” for “reactivity of this lanthanum compound”, “stirring bar. La2CO5 powder, made as” for “stirring bar. Anhydrous lanthanum oxycarbonate made as”, “amount of lanthanum oxycarbonate” for “amount of anhydrous lanthanum oxycarbonate”, “taken at intervals through a” for “taken at intervals, through a”

[2] = binding efficiency test, spiked water; settings: 0.50 g in 30.0 ml spike solution, approximately 1 mg/l of each element, 18 hrs, room temperature
Experimental: Tests were run to determine the binding efficiency of eight different compounds for twenty-four different elements.
The main objective of the tests was to investigate the efficiency at which the compounds bind arsenic and selenium, in view of their use in removing those elements from drinking water. Twenty-one different anions were also included to explore further possibilities. The tests were performed as follows:
The compounds given in Table 6 were added to water and a spike and were vigorously shaken at room temperature for 18 hrs. The samples were filtered and the filtrate analyzed for a suite of elements including Sb, As, Be, Cd, Ca, Cr, Co, Cu, Fe, Pb, Mg, Mn, Mo, Ni, Se, Tl, Ti, V, Zn, Al, Ba, B, Ag, and P.
2. Add standard solutions of the elements given above to make solutions containing approximately 1 mg/l of each element.
1. Weigh 0.50 g of each compound into its own 50 ml centrifuge tube.
2. Add 30.0 ml of the spike solution to each.
3. Cap tightly and shake vigorously for 18 hrs.
4. Filter solution from each centrifuge tube through 0.2 µm syringe filter. Obtain about 6 ml of filtrate.
5. Dilute filtrates 5:10 with 2% HNO3. Final Matrix is 1% HNO3.

[3] = urine phosphate excretion in dogs dosed orally with capsules; assay type: in vivo, beagle dogs; settings: oral capsules, 2250 mg elemental lanthanum twice daily, urine approximately 24 hours after dosing
Experimental: (§3) Six adult beagle dogs were dosed orally with capsules of LaCO3OH (compound A) or La2O2CO3 (compound B) in a cross-over design using a dose of 2250 mg elemental lanthanum twice daily (6 hours apart). The doses were administered 30 minutes after provision of food to the animals. At least 14 days washout was allowed between the crossover arms. Plasma was obtained pre-dose and 1.5, 3, 6, 7.5, 9, 12, 24, 36, 48, 60, and 72 hours after dosing and analyzed for lanthanum using ICP-MS. Urine was collected by catheterization before and approximately 24 hours after dosing and creatinine and phosphorus concentrations measured.
The tests led to reduction of urine phosphate excretion, a marker of phosphorous binding.

[4] = plasma lanthanum exposure in dogs (ICP-MS); assay type: in vivo, beagle dogs; settings: oral capsules, 2250 mg elemental lanthanum twice daily, (standard deviation)
Experimental: as §3

[5] = specific surface area by the BET method; assay type: physicochemical; settings: one of three repeats of Example 5
Experimental: For each sample, the surface area measured by the BET method and the fraction of phosphate remaining after 10 min of reaction have been tabulated. […] The rate constant k1 is defined by the following equation: d[PO4]/dt=−k1[PO4]
An aqueous HCl solution having a volume of 334.75 ml and containing LaCl3 (lanthanum chloride) at a concentration of 29.2 wt % as La2O3 was added to a 4 liter beaker and heated to 80° C. with stirring. The initial pH of the LaCl3 solution was 2.2. Two hundred and sixty five ml of an aqueous solution containing 63.59 g of sodium carbonate (Na2CO3) was metered into the heated beaker using a small pump at a steady flow rate for 2 hours. Using a Buchner filtering apparatus fitted with filter paper the filtrate was separated from the white powder product. The filter cake was mixed four times, each with 2 liters of distilled water and filtered to wash away the NaCl formed during the reaction. The washed filter cake was placed into a convection oven set at 105° C. for 2 hours or until a stable weight was observed. […] The surface area of the product was determined by the BET method. The test was repeated 3 times and slightly different surface areas and different reaction rates were obtained as shown in Table 1.

[6] = second in vivo study in rats, urinary phosphate excretion; set-up: species or system Sprague-Dawley rats; settings: 0.3 or 0.6% of diet, average over days 2, 3, and 4
Description: Six young adult male Sprague-Dawley rats were randomly assigned to each group. Test items were lanthanum oxycarbonates La2O2CO3 and La2CO5 (compound B and compound C), each tested at 0.3 and 0.6% of diet. There was an additional negative control group receiving Sigmacell cellulose in place of the test item.
The test items were mixed thoroughly into Teklad 7012CM diet. All groups received equivalent amounts of dietary nutrients.
Rats were maintained in the animal facility for at least five days prior to use, housed individually in stainless steel hanging cages. On the first day of testing, they were placed individually in metabolic cages along with their test diet. Every 24 hours, their output of urine and feces was measured and collected and their general health visually assessed. The study continued for 4 days. Food consumption for each day of the study was recorded. Starting and ending animal weights were recorded.
Urine samples were assayed for phosphorus, calcium, and creatinine concentration in a Hitachi 912 analyzer using Roche reagents. Urinary excretion of phosphorus per day was calculated for each rat from daily urine volume and phosphorus concentration. […] Food consumption was good for all groups. […]

Compound	rate of removal of phosphate compared with commercial lanthanum carbonate hydrate La2(CO3)3.H2O and La2(CO3)3.4H2O [1]	capacity of phosphate removal (PO4 removed/g of La compound) [1]	phosphate in solution removed [1]	% Analyte Removed As [2]	% Analyte Removed Be [2]	% Analyte Removed Ca [2]	% Analyte Removed Cd [2]	% Analyte Removed Co [2]	% Analyte Removed Cr [2]	% Analyte Removed Cu [2]	% Analyte Removed Fe [2]	% Analyte Removed Mg [2]	% Analyte Removed Mn [2]	% Analyte Removed Pb [2]	% Analyte Removed Sb [2]	Median phosphorus/creatinine ratio (% reduction compared to pre-dose value) [3]	Maximum concentration Cmax, plasma lanthanum [4]	Mean (sd) Area Under the Curve0-72 h, plasma lanthanum [4]	surface area of the white powder [5]	Urinary phosphate excretion [6]
O=C([O-])[O-].[La+3].[OH-] [A, lanthanum carbonate hydroxide]	faster	110 mg PO4/g	86%	29%	53%	28%	37%	29%	100%	10%	58%	0%	25%	98%	87%	48.4%	2.77 (2.1) ng/mL	54.6 (28.0) ng-h/mL	–	–
O=C([O-])[O-].[La+3].[La+3].[O-2].[O-2] [Compound B, anhydrous lanthanum oxycarbonate]	faster	120 mg PO4/g	73%	92%	100%	21%	85%	59%	100%	98%	100%	0%	99%	99%	97%	37.0%	2.45 (2.2) ng/mL	42.7 (34.8) ng-h/mL	26.95 m^2/gm	2.3 mg/day
lanthanum oxycarbonate [Compound C]	faster	–	–	93%	100%	0%	83%	52%	100%	97%	100%	0%	99%	99%	96%	–	–	–	–	1.9 mg/day
